Tested on: parent strain (SAWy518)

Compared with `O=C(O)/C=C/C=C/c1ccccc1` [JUAREZIC ACID], `O=C(/C=C/c1ccc(O)c(O)c1)OCCc1ccccc1` [PHENETHYL CAFFEATE (CAPE)] is lower in Offscreen_18hr: 0.6813 for the first, 0.3307 for the second.

Compared with `COc1cc(C)c2c(=O)c(-c3ccccc3)coc2c1` [METHOXYVONE], `CS(=O)(=O)c1ccc(C2=C(c3ccccc3)C(=O)OC2)cc1` [Rofecoxib, reference compound] is higher in Offscreen_18hr: 0.7685 for the first, 0.8386 for the second.

First: Cc1cc(C(C)(C)CC(C)(C)C)ccc1OCCOCC[N+](C)(C)Cc1ccccc1.[Cl-] [METHYLBENZETHONIUM CHLORIDE]
Second: CC[N+](CC)(CC)CCOc1ccc(/C=C/c2ccccc2)cc1 [MG 624]
The Offscreen_18hr of the first is higher: 0.7745 for the first, 0.5585 for the second.

Going from `O=C(O)[C@]1(Cc2cccc(Nc3nccs3)n2)CC[C@@H](Oc2cccc(Cl)c2F)CC1` [MK-5108 (VX-689)] to `O=[N+]([O-])c1ccc(O)c2ncccc12` [NITROXOLINE], the Offscreen_18hr falls from 0.6785 to 0.0416.

First: O=[N+]([O-])/C=C/c1ccc2c(c1)OCO2 [MNS]
Second: CN(C)c1ccc2nc3ccc(=[N+](C)C)cc-3sc2c1.O.O.O.[Cl-] [Methylene Blue]
The Offscreen_18hr of the first is lower: 0.2427 for the first, 0.8664 for the second.

Going from `COc1c(C)c2c(c(O)c1C/C=C(\C)CCC(=O)OCCN1CCOCC1)C(=O)OC2` [MYCOPHENOLATE MOFETIL] to `COc1c(C)c2c(c(O)c1C/C=C(\C)CCC(=O)O)C(=O)OC2` [MYCOPHENOLIC ACID], the Offscreen_18hr rises from 0.5798 to 0.6454.

Compared with `CCN(CC)C(=O)[C@]1(c2ccccc2)C[C@@H]1CN.Cl` [Milnacipran hydrochloride], `O=C1c2ccccc2C(=O)c2c(O)c(O)cc(O)c21` [PURPURIN] is lower in Offscreen_18hr: 0.8463 for the first, 0.5082 for the second.

Compared with `COc1c(C)c2c(c(O)c1C/C=C(\C)CCC(=O)O)C(=O)OC2` [Mycophenolic (Mycophenolate)], `CC(Cc1ccc(O)c(O)c1)C(C)Cc1ccc(O)c(O)c1` (stereo not shown) [Nordihydroguaiaretic acid, reference compound] is higher in Offscreen_18hr: 0.6524 for the first, 0.8169 for the second.

First: NCC(=O)Nc1ccc(-n2nc(C(F)(F)F)cc2-c2ccc3c(ccc4ccccc43)c2)cc1 [OSU-03012 (AR-12)]
Second: Nc1ccc(-c2nc3ccc(-c4nc5cc(N)ccc5[nH]4)cc3[nH]2)cc1 [Ro 90-7501]
The Offscreen_18hr of the first is lower: 0.0821 for the first, 0.6647 for the second.

First: CO[C@H]1C[C@@H]2CC[C@@H](C)[C@@](O)(O2)C(=O)C(=O)N2CCCC[C@H]2C(=O)O[C@H]([C@H](C)C[C@@H]2CC[C@@H](O)[C@H](OC)C2)CC(=O)[C@H](C)/C=C(\C)[C@@H](O)[C@@H](OC)C(=O)[C@H](C)C[C@H](C)/C=C/C=C/C=C/1C [Rapamycin]
Second: N#CC[C@@H](C1CCCC1)n1cc(-c2ncnc3[nH]ccc23)cn1 [S-Ruxolitinib (INCB018424)]
The Offscreen_18hr of the first is lower: 0.0498 for the first, 0.6167 for the second.

In the case of `N.N.N.N.N.N.N.N.N.N.N.N.N.N.[Cl-].[Cl-].[Cl-].[Cl-].[Cl-].[Cl-].[O-2].[O-2].[Ru+3].[Ru+3].[Ru+4]` [Ruthenium red], the Offscreen_18hr is reported as 0.6166.

First: O=C(O)/C=C/C=C/c1ccccc1 [JUAREZIC ACID]
Second: O=C(/C=C/c1ccc(O)c(O)c1)OCCc1ccccc1 [PHENETHYL CAFFEATE (CAPE)]
The Offscreen_24hr of the first is higher: 0.7831 for the first, 0.5133 for the second.

First: COc1cc(C)c2c(=O)c(-c3ccccc3)coc2c1 [METHOXYVONE]
Second: CS(=O)(=O)c1ccc(C2=C(c3ccccc3)C(=O)OC2)cc1 [Rofecoxib, reference compound]
The Offscreen_24hr of the first is lower: 0.8867 for the first, 0.9205 for the second.

Compared with `Cc1cc(C(C)(C)CC(C)(C)C)ccc1OCCOCC[N+](C)(C)Cc1ccccc1.[Cl-]` [METHYLBENZETHONIUM CHLORIDE], `CC[N+](CC)(CC)CCOc1ccc(/C=C/c2ccccc2)cc1` [MG 624] is lower in Offscreen_24hr: 0.875 for the first, 0.7684 for the second.

First: O=C(O)[C@]1(Cc2cccc(Nc3nccs3)n2)CC[C@@H](Oc2cccc(Cl)c2F)CC1 [MK-5108 (VX-689)]
Second: O=[N+]([O-])c1ccc(O)c2ncccc12 [NITROXOLINE]
The Offscreen_24hr of the first is higher: 0.8599 for the first, 0.0414 for the second.

Compared with `O=[N+]([O-])/C=C/c1ccc2c(c1)OCO2` [MNS], `CN(C)c1ccc2nc3ccc(=[N+](C)C)cc-3sc2c1.O.O.O.[Cl-]` [Methylene Blue] is higher in Offscreen_24hr: 0.4675 for the first, 0.9565 for the second.

Compared with `COc1c(C)c2c(c(O)c1C/C=C(\C)CCC(=O)OCCN1CCOCC1)C(=O)OC2` [MYCOPHENOLATE MOFETIL], `COc1c(C)c2c(c(O)c1C/C=C(\C)CCC(=O)O)C(=O)OC2` [MYCOPHENOLIC ACID] is higher in Offscreen_24hr: 0.792 for the first, 0.8395 for the second.

Going from `CCN(CC)C(=O)[C@]1(c2ccccc2)C[C@@H]1CN.Cl` [Milnacipran hydrochloride] to `O=C1c2ccccc2C(=O)c2c(O)c(O)cc(O)c21` [PURPURIN], the Offscreen_24hr falls from 0.9181 to 0.6741.

Going from `COc1c(C)c2c(c(O)c1C/C=C(\C)CCC(=O)O)C(=O)OC2` [Mycophenolic (Mycophenolate)] to `CC(Cc1ccc(O)c(O)c1)C(C)Cc1ccc(O)c(O)c1` (stereo not shown) [Nordihydroguaiaretic acid, reference compound], the Offscreen_24hr rises from 0.8532 to 0.9084.

Going from `NCC(=O)Nc1ccc(-n2nc(C(F)(F)F)cc2-c2ccc3c(ccc4ccccc43)c2)cc1` [OSU-03012 (AR-12)] to `Nc1ccc(-c2nc3ccc(-c4nc5cc(N)ccc5[nH]4)cc3[nH]2)cc1` [Ro 90-7501], the Offscreen_24hr rises from 0.1608 to 0.8739.

First: CO[C@H]1C[C@@H]2CC[C@@H](C)[C@@](O)(O2)C(=O)C(=O)N2CCCC[C@H]2C(=O)O[C@H]([C@H](C)C[C@@H]2CC[C@@H](O)[C@H](OC)C2)CC(=O)[C@H](C)/C=C(\C)[C@@H](O)[C@@H](OC)C(=O)[C@H](C)C[C@H](C)/C=C/C=C/C=C/1C [Rapamycin]
Second: N#CC[C@@H](C1CCCC1)n1cc(-c2ncnc3[nH]ccc23)cn1 [S-Ruxolitinib (INCB018424)]
The Offscreen_24hr of the first is lower: 0.0505 for the first, 0.8199 for the second.

`N.N.N.N.N.N.N.N.N.N.N.N.N.N.[Cl-].[Cl-].[Cl-].[Cl-].[Cl-].[Cl-].[O-2].[O-2].[Ru+3].[Ru+3].[Ru+4]` [Ruthenium red] showed an Offscreen_24hr of 0.8198.

Going from `O=C(O)/C=C/C=C/c1ccccc1` [JUAREZIC ACID] to `O=C(/C=C/c1ccc(O)c(O)c1)OCCc1ccccc1` [PHENETHYL CAFFEATE (CAPE)], the Offscreen_42hr falls from 0.827 to 0.8223.

Going from `COc1cc(C)c2c(=O)c(-c3ccccc3)coc2c1` [METHOXYVONE] to `CS(=O)(=O)c1ccc(C2=C(c3ccccc3)C(=O)OC2)cc1` [Rofecoxib, reference compound], the Offscreen_42hr rises from 0.9442 to 0.975.

Going from `Cc1cc(C(C)(C)CC(C)(C)C)ccc1OCCOCC[N+](C)(C)Cc1ccccc1.[Cl-]` [METHYLBENZETHONIUM CHLORIDE] to `CC[N+](CC)(CC)CCOc1ccc(/C=C/c2ccccc2)cc1` [MG 624], the Offscreen_42hr falls from 0.932 to 0.9127.

First: O=C(O)[C@]1(Cc2cccc(Nc3nccs3)n2)CC[C@@H](Oc2cccc(Cl)c2F)CC1 [MK-5108 (VX-689)]
Second: O=[N+]([O-])c1ccc(O)c2ncccc12 [NITROXOLINE]
The Offscreen_42hr of the first is higher: 0.9444 for the first, 0.0729 for the second.

First: O=[N+]([O-])/C=C/c1ccc2c(c1)OCO2 [MNS]
Second: CN(C)c1ccc2nc3ccc(=[N+](C)C)cc-3sc2c1.O.O.O.[Cl-] [Methylene Blue]
The Offscreen_42hr of the first is lower: 0.9062 for the first, 1.0182 for the second.

Compared with `COc1c(C)c2c(c(O)c1C/C=C(\C)CCC(=O)OCCN1CCOCC1)C(=O)OC2` [MYCOPHENOLATE MOFETIL], `COc1c(C)c2c(c(O)c1C/C=C(\C)CCC(=O)O)C(=O)OC2` [MYCOPHENOLIC ACID] is higher in Offscreen_42hr: 0.9179 for the first, 0.9254 for the second.

First: CCN(CC)C(=O)[C@]1(c2ccccc2)C[C@@H]1CN.Cl [Milnacipran hydrochloride]
Second: O=C1c2ccccc2C(=O)c2c(O)c(O)cc(O)c21 [PURPURIN]
The Offscreen_42hr of the first is higher: 0.9801 for the first, 0.7778 for the second.

First: COc1c(C)c2c(c(O)c1C/C=C(\C)CCC(=O)O)C(=O)OC2 [Mycophenolic (Mycophenolate)]
Second: CC(Cc1ccc(O)c(O)c1)C(C)Cc1ccc(O)c(O)c1 (stereo not shown) [Nordihydroguaiaretic acid, reference compound]
The Offscreen_42hr of the first is lower: 0.951 for the first, 0.9699 for the second.

First: NCC(=O)Nc1ccc(-n2nc(C(F)(F)F)cc2-c2ccc3c(ccc4ccccc43)c2)cc1 [OSU-03012 (AR-12)]
Second: Nc1ccc(-c2nc3ccc(-c4nc5cc(N)ccc5[nH]4)cc3[nH]2)cc1 [Ro 90-7501]
The Offscreen_42hr of the first is lower: 0.9195 for the first, 0.9612 for the second.

Compared with `CO[C@H]1C[C@@H]2CC[C@@H](C)[C@@](O)(O2)C(=O)C(=O)N2CCCC[C@H]2C(=O)O[C@H]([C@H](C)C[C@@H]2CC[C@@H](O)[C@H](OC)C2)CC(=O)[C@H](C)/C=C(\C)[C@@H](O)[C@@H](OC)C(=O)[C@H](C)C[C@H](C)/C=C/C=C/C=C/1C` [Rapamycin], `N#CC[C@@H](C1CCCC1)n1cc(-c2ncnc3[nH]ccc23)cn1` [S-Ruxolitinib (INCB018424)] is higher in Offscreen_42hr: 0.0758 for the first, 0.9411 for the second.

Compound `N.N.N.N.N.N.N.N.N.N.N.N.N.N.[Cl-].[Cl-].[Cl-].[Cl-].[Cl-].[Cl-].[O-2].[O-2].[Ru+3].[Ru+3].[Ru+4]` [Ruthenium red] has an Offscreen_42hr of 0.9382.

In the case of `Cl.O=S(=O)(c1cccc2c(I)cccc12)N1CCCNCC1` [ML-7, reference compound], the Offtarget is reported as “NO”.

With `Cl.O=S(=O)(c1cccc2c(I)cccc12)N1CCCNCC1` [ML-7, reference compound] the Offtarget_sub was 0.3788.

First: CC(Cc1ccc(O)c(O)c1)C(C)Cc1ccc(O)c(O)c1 (stereo not shown) [Nordihydroguaiaretic acid, reference compound]
Second: CS(=O)(=O)c1ccc(C2=C(c3ccccc3)C(=O)OC2)cc1 [Rofecoxib, reference compound]
The OffScreen_percentage of the first is lower: 101.227 percentage for the first, 103.916 percentage for the second.

Compared with `CC(Cc1ccc(O)c(O)c1)C(C)Cc1ccc(O)c(O)c1` (stereo not shown) [Nordihydroguaiaretic acid, reference compound], `CCCc1c(-c2ccc(O)cc2)nn(-c2ccc(O)cc2)c1-c1ccc(O)cc1` [Propylpyrazole triol] is lower in Read_percentage: 101.227 percentage for the first, 98.9963 percentage for the second.

With `CS(=O)(=O)c1ccc(C2=C(c3ccccc3)C(=O)OC2)cc1` [Rofecoxib, reference compound] the Read_percentage was 103.916.

Source: PMC11637378, “Optogenetic screening of MCT1 activity implicates a cluster of non-steroidal anti-inflammatory drugs (NSAIDs) as inhibitors of lactate transport” (PLOS ONE, 2024)
